Where two headings read alike, the source gives them in different places.
Assays:
Experiment in all cases: MIC, agar incorporation method
[1] = test system: E. faecalis SP 346 (VRE); type: cell-based; settings: Enterococcus faecalis
[2] = test system: Serratia marcescens 12999; type: cell-based
[3] = test system: S. pyogenes 20361; type: cell-based, Streptococcus pyogenes; settings: Streptococcus pyogenes
[4] = test system: P. aeruginosa ATCC 27853; type: cell-based; settings: Pseudomonas aeruginosa, ATCC27853
[5] = test system: S. pneumoniae AB 10; type: cell-based, Streptococcus pneumoniae; settings: Streptococcus pneumoniae, AB10
[6] = test system: Salmonella 205; type: cell-based; settings: S. No. 26, Salmonella 205; read-out: MIC
Experimental: The compounds of the invention display antibacterial activity when tested by the agar incorporation method. The following minimum inhibitory concentrations (μg/ml) were obtained for representative compounds of the invention which are given below in the following tables.
Briefly, the compounds were dissolved in DMSO and doubling dilution of the compounds were incorporated into Meer Hilton agar before solidification. Inoculum was prepared by suspending 4 to 5 colonies into 5 ml of normal saline solution and adjusting the turbidity to 0.5 Macfarland turbidity standard tables (1.5×10^8 CFU/ml), after appropriate dilutions, 10^4 CFU/spot was transfered into the surface of dried plate and incubated for 18 hours (24 hours for MRSN studies). The concentration showing no growth of the inoculated culture was recorded as the MIC. Appropriate ATCC standard strains were simultaneously tested and result recorded only when the MIC's against standard antibiotics were within the acceptable range.

[7] = test system: S. pneumoniae 1251; type: cell-based, Streptococcus pneumoniae; settings: Streptococcus pneumoniae, 1251
[8] = test system: S. pneumoniae AB 25; type: cell-based, Streptococcus pneumoniae; settings: Streptococcus pneumoniae, AB25
[9] = test system: K. oxytoca 49131; type: cell-based; settings: Klebsiella oxytoca
[10] = test system: E. faecium 398(VRE); type: cell-based, Enterococcus faecium; settings: Enterococcus faecium
[11] = test system: S. aureus (MRSA 33) Cipro R; type: cell-based, Staphylococcus aureus; settings: Staphylococcus aureus
[12] = test system: S. pneumoniae 1256; type: cell-based, Streptococcus pneumoniae; settings: Streptococcus pneumoniae
[13] = test system: S pneumoniae 1294.; type: cell-based, Streptococcus pneumoniae; settings: Streptococcus pneumoniae, 1294.
[14] = test system: E. durans 581; type: cell-based; settings: Enterococcus durans
[15] = test system: S. pneumoniae ATCC 49619; type: cell-based, Streptococcus pneumoniae; settings: Streptococcus pneumoniae, ATCC49619
[16] = test system: S. pneumoniae AB4; type: cell-based, Streptococcus pneumoniae; settings: Streptococcus pneumoniae
[17] = test system: Moraxella cata. M2; type: cell-based
[18] = test system: S. pneumoniae AB 29; type: cell-based, Streptococcus pneumoniae; settings: Streptococcus pneumoniae, AB29
[19] = test system: S. pneumoniae 217; type: cell-based, Streptococcus pneumoniae; settings: Streptococcus pneumoniae, 217
[20] = test system: S. pneumoniae AB 16; type: cell-based, Streptococcus pneumoniae; settings: Streptococcus pneumoniae, AB16
[21] = test system: S. pyogenes 19615; type: cell-based, Streptococcus pyogenes; settings: Streptococcus pyogenes, 19615
[22] = test system: S. aureus (MRSA) 21299; type: cell-based, Staphylococcus aureus; settings: Staphylococcus aureus
[23] = test system: S. pneumoniae AB 34; type: cell-based, Streptococcus pneumoniae; settings: Streptococcus pneumoniae, AB34
[24] = test system: S. aureus SG 511; type: cell-based, Staphylococcus aureus; settings: Staphylococcus aureus, SG511
[25] = test system: S. pneumoniae AB 21; type: cell-based, Streptococcus pneumoniae; settings: Streptococcus pneumoniae, AB21
[26] = test system: S. epidermidis (MRSE) 23760; type: cell-based, Staphylococcus epidermidis; settings: Staphylococcus epidermidis, MRSE
[27] = test system: S. pneumoniae AB 23; type: cell-based, Streptococcus pneumoniae; settings: Streptococcus pneumoniae, AB23
[28] = test system: E. faecalis 21777; type: cell-based; settings: Enterococcus faecalis
[29] = test system: S. pneumoniae AB 30; type: cell-based, Streptococcus pneumoniae; settings: Streptococcus pneumoniae, AB30
[30] = test system: S. pneumoniae 1275; type: cell-based, Streptococcus pneumoniae; settings: Streptococcus pneumoniae
[31] = test system: S. aureus (MRSA) 15187; type: cell-based, Staphylococcus aureus; settings: Staphylococcus aureus
[32] = test system: S. pneumoniae AB-2; type: cell-based, Streptococcus pneumoniae; settings: Streptococcus pneumoniae, AB2

Measured: MIC

CC(=O)NC[C@H]1CN(c2ccc(N3CCN(c4ccc([N+](=O)[O-])s4)CC3)c(F)c2)C(=O)O1 [Compound No. 1, (S)—N-[[3-[3-Fluoro-4-[4-(5-nitro-2-thienyl)-1-piperazinyl]phenyl]-2-oxo-5-oxazolidinyl]methyl]acetamide]
0.06 µg/mL: [3]; S. No. 53, S. pyogenes 20361, read-out: MIC | [5]; S. No. 35, S. pneumoniae AB 10, read-out: MIC | [15]; S. No. 48, S. pneumoniae ATCC 49619, read-out: MIC | [16]; S. No. 33, S. pneumoniae AB4, read-out: MIC | [30]; S. No. 57, S. pneumoniae 1275, read-out: MIC
0.25 µg/mL: [1]; S. No. 20, E. faecalis SP 346 (VRE), read-out: MIC | [10]; S. No. 22, E. faecium 398(VRE), read-out: MIC | [11]; S. No. 7, S. aureus (MRSA 33) Cipro R, read-out: MIC | [12]; S. No. 56, S. pneumoniae 1256, read-out: MIC | [14]; S. No. 24, E. durans 581, read-out: MIC | [17]; S. No. 59, Moraxella cata. M2, read-out: MIC | [22]; S. No. 5, S. aureus (MRSA) 21299, read-out: MIC | [23]; S. No. 49, S. pneumoniae AB 34, read-out: MIC | [28]; S. No. 18, E. faecalis 21777, read-out: MIC | [31]; S. No. 4, S. aureus (MRSA) 15187, read-out: MIC
> 16 µg/mL: [2]; S. No. 29, Serratia marcescens 12999, read-out: MIC | [4]; S. No. 28, P. aeruginosa ATCC 27853, read-out: MIC | [6] | [9]; S. No. 27, K. oxytoca 49131, read-out: MIC
0.125 µg/mL: [7] | [8] | [13] | [18] | [19] | [20] | [21] | [24] | [25] | [26] | [27] | [29] | [32]

CC(=O)NC[C@H]1CN(c2ccc(N3CCOCC3)c(F)c2)C(=O)O1 [Linezolid, reference compound]
2 µg/mL: [1]; VRE | [23] | [24] | [28]; 21777 | [31]; MRSA
0.25 µg/mL: [5] | [16]; AB4 | [32]
4 µg/mL: [17]; Moraxella, CATA.M2
> 16 µg/mL: [2]; Serratia marcescens, 12999 | [4] | [6] | [9]; 49131
1 µg/mL: [3]; 20361 | [7] | [8] | [10]; VRE | [11]; MRSA | [12]; 1256 | [13] | [14]; 581 | [15] | [18] | [19] | [20] | [21] | [22]; MRSA | [25] | [26] | [27] | [29] | [30]; 1275

From patent US20060293307A1, “Oxazolidinone derivatives as antimicrobials” (priority 2002, published 2006)
